Laboratory results published in patent US20260191998A1, “INDOLE PHTHALOCYANINE COMPOUND, PREPARATION METHOD THEREFOR, AND USE THEREOF IN TUMOR DIAGNOSIS IMAGING” (JIANGSU YAHONG MEDITECH CO., LTD., priority 2022, published 2026).

Columns and labels:
[1] = system: human bladder cancer cell line UM-UC-3; experiment: In vitro imaging effect test with addition of BSP, UM-UC-3; format: cell-based; conditions: 250 μM BSP, compound 1-20 μM with surfactin 1:5, 30 minutes
Method: UM-UC-3 (1.5×10^4/well) were cultured in EMEM medium (containing 10% fetal bovine serum (FBS) and 1% antibiotics (100 U/mL penicillin and 100 U/mL streptomycin)) and seeded in a 96-well plate in advance. The plate was cultured in a 5% CO2 cell culture incubator at 37° C. overnight. The following day, the culture medium was sucked away, and 250 μM of BSP was added to the test wells and preconditioned for 10 minutes, followed by addition of the culture medium containing an appropriate concentration (1-20 μM) of the compound and surfactin (the molar ratio of the test compound to the surfactin being 1:5) with or without 250 μM of BSP, and then incubated for 30 minutes. The cells were rinsed three times with PBS solution, and the near-infrared fluorescence intensity in the bladder cancer cells was observed using an integrated fluorescence microscopic imaging system from Keyence. The conditions for near-infrared photography were Ex=775/50 nm and Em=845/55 nm.

[2] = UV-VIS absorption spectra (optical property test); format: physicochemical; conditions: 10 μM, DMSO solution; for Absorbance × 10^4: at maximum absorption peak
Method: The UV-VIS absorption spectra of the compounds (10 μM, DMSO solution) were detected using Shimadzu UV2600 spectrophotometer, and the maximum absorption peak and absorbance of each compound were obtained.

## CC[N+]1=C(/C=C/C2=C(Cl)C(=C/C=C3/N(CCCCCC(=O)Oc4ccccc4)c4ccc5ccccc5c4C3(C)C)/CCC2)C(C)(C)c2c1ccc1ccccc21 [Example 2]
[1]
  Uptake by UM-UC-3 with or without BSP: may be weakened or enhanced by BSP
[2]
  Absorption peak: 833.5 nm
  Absorbance × 10^4: 2.09

## CC[N+]1=C(/C=C/C2=C(Cl)C(=C/C=C3/N(CCCCCC(=O)Oc4ccccc4)c4ccccc4C3(C)C)/CC2)C(C)(C)c2ccccc21 [Example 4, 2-((E)-2-((E)-2-chloro-3-(2-((E)-3,3-dimethyl-1-(6-oxo-6-phenoxyhexyl)indolin-2-ylidene)ethenyl)cyclopent-1-en-1-yl)ethenyl)-1-ethyl-3,3-dimethyl-3H-indol-1-ium Chloride]
[1]
  Uptake by UM-UC-3 with or without BSP: may be weakened or enhanced by BSP
[2]
  Absorption peak: 821 nm
  Absorbance × 10^4: 2.36

## CC[N+]1=C(/C=C/C2=C(Cl)C(=C/C=C3/N(Cc4ccc(C(=O)Oc5ccccc5)cc4)c4ccccc4C3(C)C)/CCC2)C(C)(C)c2ccccc21 [Example 6, 2-((E)-2-((E)-2-chloro-3-(2-((E)-3,3-dimethyl-1-(4-(phenoxycarbonyl)bromo)indolin-2-ylidene)ethenyl)cyclohex-1-en-1-yl)ethenyl)-1-ethyl-3,3-dimethyl-3H-indol-1-ium Chloride]
[1]
  Uptake by UM-UC-3 with or without BSP: may be weakened or enhanced by BSP
[2]
  Absorption peak: 795 nm
  Absorbance × 10^4: 1.8

## CC[N+]1=C(/C=C/C2=C(Cl)C(=C/C=C3/N(CCCCCC(=O)Oc4ccccc4)c4ccccc4C3(C)C)/CCC2)C(C)(C)c2ccccc21 [Example 12a, 2-((E)-2-((E)-2-chloro-3-(2-((E)-3,3-dimethyl-1-(6-oxo-6-phenoxyhexyl)indolin-2-ylidene)ethenyl)cyclohex-1-en-1-yl)ethenyl)-1-ethyl-3,3-dimethyl-3H-indol-1-ium chloride, reference compound]
[1]
  Uptake by UM-UC-3 with or without BSP: may be weakened or enhanced by BSP

## CCN1/C(=C/C=C2\CCCC(/C=C/C3=[N+](CC)c4ccccc4C3(C)C)=C2Sc2ccccc2)C(C)(C)c2ccccc21.[Cl-] [Example 108]
[2]
  Absorption peak: 805.5 nm
  Absorbance × 10^4: 1.752

## CC[N+]1=C(/C=C/C2=C(Oc3ccc(S(=O)(=O)O)cc3)C(=C/C=C3/N(CCCCCC(=O)Oc4ccccc4)c4ccccc4C3(C)C)/C[N+](C)(C)C2)C(C)(C)c2ccccc21 [Example 112]
[2]
  Absorption peak: 756 nm
  Absorbance × 10^4: 0.911

## CC[N+]1=C(/C=C/C2=C(Oc3ccc(C#N)cc3)C(=C/C=C3/N(CCCCCC(=O)Oc4c(C)cccc4C)c4ccccc4C3(C)C)/CCC2)C(C)(C)c2ccccc21 [Example 114]
[2]
  Absorbance × 10^4: 2.46

## CC[N+]1=C(/C=C/C2=C(Oc3ccc(NC(=O)/C=C/CN(C)C)cc3)C(=C/C=C3/N(CCCCCC(=O)Oc4c(C)cccc4C)c4ccccc4C3(C)C)/CCC2)C(C)(C)c2ccccc21.[Cl-] [Example 115]
[2]
  Absorbance × 10^4: 2.24

## CC[N+]1=C(/C=C/C2=C(Cl)C(=C/C=C3/N(CCOCCC(=O)Oc4ccccc4)c4ccccc4C3(C)C)/CCC2)C(C)(C)c2cc(C(=O)O)ccc21 [Example 117, 5-carboxy-2-((E)-2-((E)-2-chloro-3-(2-((E)-3,3-dimethyl-1-(2-(3-oxo-3-phenoxypropoxy)ethyl)indolin-2-ylidene)ethenyl)cyclohex-1-en-1-yl)ethenyl)-1-ethyl-3,3-dimethyl-3H-indol-1-ium 2,2,2-trifluoroacetate]
[2]
  Absorbance × 10^4: 1.36

## C[N+]1=C(/C=C/C2=C(Cl)C(=C/C=C3/N(CCCCCC(=O)O)c4ccccc4C3(C)C)/CCC2)C(C)(C)c2cc(C(=O)O)ccc21 [Example 119, 5-carboxy-2-((E)-2-((E)-3-(2-((E)-1-(5-carboxypentyl)-3,3-dimethylindolin-2-ylidene)ethenyl)-2-chlorocyclohex-1-en-1-yl)ethenyl)-1,3,3-trimethyl-3H-indol-1-ium 2,2,2-trifluoroacetate]
[2]
  Absorbance × 10^4: 1.52
